Data: PMC4785065 (Bioorganic & medicinal chemistry letters, 2016)

Molecular target: human topoisomerase IIα (Homo sapiens, UniProt P11388)
Assay: DNA cleavage inhibition assay
Format: biochemical

Sequence of human topoisomerase IIα (P11388 whole entry): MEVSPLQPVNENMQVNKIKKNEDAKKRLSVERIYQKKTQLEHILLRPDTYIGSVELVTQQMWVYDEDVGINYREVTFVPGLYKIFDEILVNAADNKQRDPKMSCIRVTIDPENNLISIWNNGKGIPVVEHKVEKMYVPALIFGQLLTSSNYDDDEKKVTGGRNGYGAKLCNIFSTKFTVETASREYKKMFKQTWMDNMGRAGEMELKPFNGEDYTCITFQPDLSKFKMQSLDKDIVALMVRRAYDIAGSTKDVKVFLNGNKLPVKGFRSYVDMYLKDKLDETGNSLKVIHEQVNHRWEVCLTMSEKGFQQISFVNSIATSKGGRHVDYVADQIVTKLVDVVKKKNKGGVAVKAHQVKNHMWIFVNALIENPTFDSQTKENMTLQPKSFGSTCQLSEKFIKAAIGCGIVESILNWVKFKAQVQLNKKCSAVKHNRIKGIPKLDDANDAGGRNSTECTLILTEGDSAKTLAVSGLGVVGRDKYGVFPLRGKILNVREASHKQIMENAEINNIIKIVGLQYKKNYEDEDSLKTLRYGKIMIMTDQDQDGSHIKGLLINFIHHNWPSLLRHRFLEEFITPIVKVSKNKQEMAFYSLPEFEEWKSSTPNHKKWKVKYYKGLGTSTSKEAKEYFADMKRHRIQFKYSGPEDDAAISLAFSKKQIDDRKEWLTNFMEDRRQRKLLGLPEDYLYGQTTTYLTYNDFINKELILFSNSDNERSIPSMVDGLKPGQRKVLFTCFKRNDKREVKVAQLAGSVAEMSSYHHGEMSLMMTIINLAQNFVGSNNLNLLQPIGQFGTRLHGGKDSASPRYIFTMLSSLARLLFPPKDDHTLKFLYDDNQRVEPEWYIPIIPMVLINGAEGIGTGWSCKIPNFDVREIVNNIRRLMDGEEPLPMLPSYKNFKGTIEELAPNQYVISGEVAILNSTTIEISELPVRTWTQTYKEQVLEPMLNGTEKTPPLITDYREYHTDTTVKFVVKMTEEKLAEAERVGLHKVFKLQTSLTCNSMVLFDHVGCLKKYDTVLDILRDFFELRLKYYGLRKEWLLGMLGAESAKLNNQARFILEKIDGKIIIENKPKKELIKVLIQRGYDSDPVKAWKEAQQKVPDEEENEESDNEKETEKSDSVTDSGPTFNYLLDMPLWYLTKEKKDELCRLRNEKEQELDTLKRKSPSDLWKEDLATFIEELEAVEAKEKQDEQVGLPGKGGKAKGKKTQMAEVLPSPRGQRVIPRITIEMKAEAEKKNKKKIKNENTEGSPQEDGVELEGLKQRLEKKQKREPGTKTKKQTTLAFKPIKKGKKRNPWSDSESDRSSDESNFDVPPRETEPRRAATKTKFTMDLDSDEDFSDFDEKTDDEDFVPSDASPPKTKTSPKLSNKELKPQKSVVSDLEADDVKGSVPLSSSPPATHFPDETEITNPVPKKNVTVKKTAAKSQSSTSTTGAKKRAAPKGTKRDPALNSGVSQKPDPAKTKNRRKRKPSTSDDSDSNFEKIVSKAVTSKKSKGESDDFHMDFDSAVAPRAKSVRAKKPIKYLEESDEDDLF

## Cc1c2ccncc2c(C)c2c1[nH]c1ccccc12 [ET, 5,11-dimethyl-6H-pyrido[4,3-b]carbazole]
  IC50: > 200 µM
